Experimental data as given in patent publication US8153773B2, “Synthesis and use of anti-reverse phosphorothioate analogs of the messenger RNA cap” (Board of Supervisors of Louisiana State University and …, priority 2007, dated 2012).

How the values were obtained:
hDcp2 [1] = molecular target: T1, hDcp2 (Homo sapiens, UniProt Q8IU60); test: In vitro RNA decapping assay with recombinant hDcp2; type: biochemical; details: capped 32P-labeled short RNA, recombinant hDcp2, anion exchange HPLC (FIG. 6)
Experimental: Dcp2 activity was measured with capped 48-nt oligonucleotides as substrates, a truncated form of luciferase mRNA (48 nucleotides). GST-hDcp2 was expressed in Escherichia coli and purified as described by Z. Wang et al., “The hDcp2 protein is a mammalian mRNA decapping enzyme,” Proc. Natl. Acad. Sci. U.S.A., vol. 99, pp. 12663-12668 (2002). Capped oligonucleotides were first subjected to digestion with GST-hDcp2 at 37° C. for 2 h in decapping buffer (10 mM Tris-HCl, pH 7.5, 100 mM potassium acetate, 2 mM magnesium acetate, 0.5 mM MnCl2, 2 mM dithiothreitol, and 0.1 mM spermine). See C. Piccirillo et al., “Functional characterization of the mammalian mRNA decapping enzyme hDcp2,” RNA, vol. 9, pp. 1138-1147 (2003). The reaction mixture was then extracted once with an equal volume of phenol and twice with chloroform, and RNA was precipitated with ethanol. Products of the decapping reaction were further digested with a cocktail of ribonucleases (RiboShredder; Epicentre) at 37° C. for 1 h. The products were resolved by anion-exchange HPLC on a 4.6×250-mm Partisil 10SAX/25 column (Whatman). The gradient consisted of water for 1 min, a linear gradient to 112 mM KH2PO4, pH 4.5, for 20 min, a linear gradient of 112-450 mM KH2PO4 for 15 min, a linear gradient of 450 mM to 1.5 M KH2PO4 for 15 min, and isocratic elution at 1.5 M of KH2PO4 for 9 min, all at a flow rate 1 ml/min.
We tested oligonucleotides capped with either of S-ARCAs for hydrolysis by recombinant hDcp2 to test whether mRNA capped with the various diastereomers of m2^7,2′-OGpppsG and m2^7,2′-OGppspG would differ in their sensitivity to cleavage by Dcp1/Dcp2. See generally Z. Wang et al., “The hDcp2 protein is a mammalian mRNA decapping enzyme,” Proc. Natl. Acad. Sci. U.S.A., vol. 99, pp. 12663-12668 (2002), and Z. Wang et al., “An mRNA Stability Complex Functions with Poly(A)-Binding Protein To Stabilize mRNA In Vitro”, Mol. Cell. Biol., vol. 19, pp. 4552-4560 (1999). Cap analogs used were initially unlabeled, so to follow the products of the digestion reaction we synthesized capped oligonucleotides in the presence of [α-^32P]GTP and a DNA template in which G was the first ribonucleotide specified after the promoter. The oligonucleotides capped with either of the S-ARCAs were subjected to Dcp2 digestion in vitro, after which the products were further digested with a cocktail of ribonucleases (RiboShredder from Epicenter). Any nucleotide on the 5′ side of a G residue acquired a ^32P-labeled 3′-phosphate group after ribonuclease digestion by nearest-neighbor transfer. Anion exchange chromatography was then used to resolve the labeled 3′-nucleoside monophosphates (3′-NMP*), at internal positions in the RNA, from labeled 5′-terminal products (FIG. 6). The latter comprise p3 Gp* derived from uncapped transcripts and m2^7,2′-OGp3 Gp* (when m2^7,2′-OGp3G was used), or pGp* resulting from capped RNA resistant or nonresistant to enzymatic cleavage, respectively. All cap analogs used were ARCAs, which ensured that they were incorporated into RNA exclusively in the correct orientation. This further guaranteed that only one 5′-terminal product (m2^7,2′-OGp3 Gp*) was observed upon ribonuclease treatment. Uncapped RNA is not a substrate for Dcp2, which explains why p3 Gp* product was observed after Dcp2 digestion.
See E. Grudzien et al., “Differential inhibition of mRNA degradation pathways by novel cap analogs,” J. Biol. Chem., vol. 281, pp. 1857-1867 (2006).

hDcp2 [2] = molecular target: T1, hDcp2; details: Grudzien et al. 2006; cited from earlier work
murine eIF4E (28-217) = molecular target: T2, murine eIF4E (28-217) (Mus musculus, UniProt P63073); test: Binding affinities for eIF4E by fluorescence quenching; details: murine eIF4E (28-217)
T2 construct: (28-217) to phosphorothioate cap analogs, as determined
T2 sequence (P63073 28-217): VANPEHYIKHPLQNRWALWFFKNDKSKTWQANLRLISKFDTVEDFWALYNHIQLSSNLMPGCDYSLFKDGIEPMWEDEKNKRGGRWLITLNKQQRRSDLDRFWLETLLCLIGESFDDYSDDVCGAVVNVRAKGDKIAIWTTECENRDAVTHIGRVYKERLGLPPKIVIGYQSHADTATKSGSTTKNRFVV
Experimental: Binding affinities of S analogs for murine eIF4E were determined by fluorescence quenching. Fluorescence titration measurements were carried out on an LS-50B spectrofluorometer (Perkin Elmer Co.) in 50 mM HEPES/KOH (pH 7.2), 100 mM KCl, 0.5 mM EDTA, 1 mM DTT at 20.0±0.2° C. Aliquots of 1 μl increasing concentration of cap analogue solutions were added to 1.4 ml of […] solutions. Fluorescence intensities (excitation at 280 nm with 2.5 nm bandwidth and detection at 337 nm with 4 nm bandwidth and 290 nm cut-off filter) were corrected taking into account sample dilution and the inner filter effect. Equilibrium association constants (KAS) were determined by fitting the theoretical dependence of the fluorescence intensity on the total concentration of cap analogue to the experimental data points according to equation described previously (See A. Niedzwiecka et al., “Biophysical studies of eIF4E cap-binding protein: recognition of mRNA 5′ cap structure and synthetic fragments of eIF4G and 4E-BP1 proteins,” J. Mol. Biol., vol. 319, pp. 615-635 (2002)). The concentration of protein was fitted as a free parameter of equilibrium equation showing amount of “active” protein. The final KAS was calculated as a weighted average of three to ten independent titrations, with the weights taken as the reciprocals of the numerical standard deviations squared. Numerical nonlinear least-squares regression analysis was performed using ORGIN 6.0 (Microcal Software Inc., USA). The Gibbs free energy of binding was calculated from the KAS value according to the standard equation ΔG°=−RTlnKAS.

HC11 cells = test: Translational efficiency of capped luciferase mRNA in HC11 cells; type: cell-based, mouse; details: Luc-A60 mRNA capped with the analog in HC11 cells, relative to m^7Gp3G-capped mRNA
Experimental: Two methods, electroporation and nucleoporation, were used to deliver RNA into cells. In case of electroporation, 5 μg of RNA were introduced into 10^7 HC11 cells in a total volume 400 μl of serum-reduced RPMI 1640 medium in a Gene pulser cuvette (4 mm gap) with a Bio-Rad Genepulser™ set at 0.22 kV and 960 μF. Following discharge, the cells were washed twice with PBS, centrifuged for 2 min 300×g at room temperature, resuspended in prewarmed complete medium, and placed at 37° C. Nucleoporation was performed with an Amaxa Nucleofector II (Amaxa Biosystems) in accordance with manufacture's recommendations. One microgram of RNA was introduced into 10^6 HC11 cells with Nucleofector Solution V and the set of recommended regimens (program T-024).
For measurement of translational efficiency, cells were divided into several Eppendorf tubes, placed in a water bath at 37° C., and shaken. For measurement of mRNA stability, cells were distributed into 35-mm cell culture dishes and placed at 37° C. in a 5% CO2 humidified atmosphere. Cells were harvested at various times and washed twice with PBS.
For cytoplasmic RNA extraction, 2×10^5 cells were lysed in 175 μl of lysis buffer (50 mM Tris-HCl, pH 8.0, 140 mM NaCl, 1.5 mM MgCl2, 0.5% (v/v) Igepal (Sigma), and 1 mM dithiothreitol). RNAs were further purified using the RNeasy mini kit. For protein extraction, 2×10^5 cells were lysed in 200 μl of Luciferase Cell Culture Lysis Reagent (Promega). Luciferase activity of cell extracts was measured according to the manufacturer's protocol (Promega).
We also determined the translational efficiency in cultured cells for luciferase mRNA capped with S-ARCAs. This involved two measurements conducted at various times following nucleoporation—luciferase activity measured by luminometry in cleared cell lysates, and Luc-A60 levels measured by real-time PCR. Luciferase activity was normalized by the amount of luciferase mRNA that had been delivered into cells. To determine the amount of RNA present in the cells at a time immediately after nucleoporation, i.e., before any decay had occurred, cells were harvested at various times between 2 to 8 h post-nucleoporation, and cytoplasmic RNA was extracted. The amount of luciferase mRNA was measured by real time PCR using primers that amplify sequences near the 5′-end. Luciferase mRNA remaining at each time point was plotted as log10 ([RNA]) versus time to determine t1/2. The curve was extrapolated to 0 h, and the amount of RNA delivered into the cells was calculated. We defined conditions under which the accumulation of luciferase was linear with time, after an initial lag period of ˜30 min for recruitment of mRNA to ribosomes, completing the first polypeptide chain, and release of luciferase into the cytosol.

DcpS [3] = molecular target: T3, DcpS (Homo sapiens, UniProt Q96C86); test: Enzymatic hydrolysis by human DcpS; type: biochemical; design: key: the analogs assigned as resistant remained completely undigested under the applied conditions; the analogs assigned as hydrolyzed were hydrolyzed by DcpS with efficiency comparable to the respective unmodified parent compound; details: conditions giving complete degradation of unmodified parent within 40-90 min, RP HPLC
T3 sequence (Q96C86 1-337): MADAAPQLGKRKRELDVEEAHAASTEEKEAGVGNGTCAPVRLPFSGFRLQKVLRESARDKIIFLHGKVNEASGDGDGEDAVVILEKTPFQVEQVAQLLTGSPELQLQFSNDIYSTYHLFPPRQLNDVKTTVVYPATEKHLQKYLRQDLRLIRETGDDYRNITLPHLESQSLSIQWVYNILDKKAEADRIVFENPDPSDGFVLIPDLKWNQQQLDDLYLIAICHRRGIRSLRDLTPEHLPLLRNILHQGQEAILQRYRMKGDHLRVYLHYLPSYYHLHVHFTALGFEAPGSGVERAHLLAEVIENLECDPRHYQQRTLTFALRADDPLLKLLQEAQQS
Experimental: (§1) Human and nematode DcpS were expressed in Escherichia coli according to the procedures described previously (L. S. Cohen et al., “Nematode m7 GpppG and m3(2,2,7)GpppG decapping: activities in Ascaris embryos and characterization of C. elegans scavenger DcpS,” RNA, vol. 10, pp. 1609-1624 (2004)). Both proteins were stored at −80° C. in 20 mM Tris buffer, pH 7.5, containing 50 mM KCl, 0.2 mM EDTA, 1 mM DTT, 0.5 mM PMSF, and 20% glycerol. An appropriate cap analog at 1 mM concentration was treated with 5.0 or 7.0 μl of DcpS (from human or C. elegans, respectively) in 500 μl of 50 mM TRIS buffer, pH=7.9, containing 20 mM of MgCl2 and 60 mM of (NH4)2SO4 at 37° C. for 60-90 min. Every 15-20 min a 100 μl sample was collected from the reaction mixture and deactivated by incubation in 90° C. for 3 min. Collected samples were analyzed without further treatment by analytical RP HPLC using a linear gradient of methanol in 0.1 M KH2PO4, pH=6.0, from 0-50% within 15 min and UV-detection at 260 nm.
(§2) The new series of S-analogs were subjected to in vitro enzymatic hydrolysis catalyzed by DcpS from both human and C. elegans sources. In all experiments, the corresponding unmodified cap analog was used as a positive control, i.e., m^7GpppG for non-ARCA S-analogs and m2^7,2′-OGpppG for S-ARCAs. The amount of DcpS enzyme was optimized to provide complete degradation of the control substrate within 40-90 min. The samples collected from reaction mixtures at various time intervals were analyzed by RP HPLC (as described in Materials and Methods).
(§3) In Table 4, cap analogs at 4 μM concentration were subjected to enzymatic digestion by DcpS in conditions leading to complete degradation of the unmodified parent compound (i.e. m^7GpppG for non-ARCA S-analogs and m2^7,2′-OGpppG for ARCAs) within 40-90 min. Samples collected from reaction mixtures at various time intervals were analysed by RP HPLC with UV detection at 260 nm as described in Materials and Methods. […] The result was unchanged even if the reaction time was extended to 24 h, various amounts of enzyme were used, and composition of the reaction buffer was modified.

DcpS [4] = molecular target: T4, DcpS (Caenorhabditis elegans, UniProt G5EFS4); test: Enzymatic hydrolysis by C. elegans DcpS; type: biochemical; design: key: the analogs assigned as resistant remained completely undigested under the applied conditions; the analogs assigned as hydrolyzed were hydrolyzed by DcpS with efficiency comparable to the respective unmodified parent compound; details: conditions giving complete degradation of unmodified parent within 40-90 min, RP HPLC
T4 sequence (G5EFS4 1-311): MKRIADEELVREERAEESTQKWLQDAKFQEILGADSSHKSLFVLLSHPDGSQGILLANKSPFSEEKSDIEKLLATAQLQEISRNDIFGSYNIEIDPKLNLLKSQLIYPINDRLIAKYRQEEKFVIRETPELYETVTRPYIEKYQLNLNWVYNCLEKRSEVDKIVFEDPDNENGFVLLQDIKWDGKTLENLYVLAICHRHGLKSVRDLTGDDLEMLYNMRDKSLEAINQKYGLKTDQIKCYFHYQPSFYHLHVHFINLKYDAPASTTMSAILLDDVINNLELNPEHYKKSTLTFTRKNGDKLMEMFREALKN
Experimental: as §1, §2, §3

Compound | hydrolysis of capped oligonucleotide by hDcp2 (hDcp2 [1]) | hydrolysis of capped mRNA by recombinant human Dcp2 in vitro (hDcp2 [2]) | ΔG° (murine eIF4E (28-217); binding free energy calculated from KAS) [kcal/mol] | KAS (murine eIF4E (28-217); equilibrium association constant, fluorescence quenching) [µM⁻¹] | Relative translational efficiency (HC11 cells) | Resistance to enzymatic hydrolysis by DcpS (human) (DcpS [3]) | Resistance to enzymatic hydrolysis by DcpS (from C. elegans) (DcpS [4])
CO[C@H]1[C@@H](O)[C@H](n2c[n+](C)c3c(=O)[nH]c(N)nc32)O[C@@H]1COP(=O)(O)OP(=O)(O)CP(=O)(O)OC[C@H]1O[C@@H](n2cnc3c(=O)[nH]c(N)nc32)[C@H](O)[C@@H]1O [m2^7,3′-OGppCH2pG, reference compound] | resistant | resistant to hydrolysis | – | – | – | – | –
Cn1c[n+]([C@@H]2O[C@H](COP(=O)(O)OP(=O)([O-])OP(=O)(O)OC[C@H]3O[C@@H](n4cnc5c(=O)[nH]c(N)nc54)[C@H](O)[C@@H]3O)[C@@H](O)[C@H]2O)c2nc(N)[nH]c(=O)c21 [m^7GpppG, reference compound] | – | – | -9.35 ± 0.02 | 9.4 ± 0.4 | 1.00 | hydrolyzed | hydrolyzed
